Where no end group is shown, it is not given here. [ ]: non-standard residue; d: D form.
Test system: CTNNB1
Assay: In vitro DMD assay: mRNA silencing enhancement by peptide conjugates after siRNA-IV treatment
Type: cell-based
Settings: primary mouse hepatocytes, siRNA-IV 125 nM baseline
Procedure: Cryopreserved primary Mouse hepatocytes (Bioreclamation, LLC) were placed into Collagen Type I coated 96-well plates at 25,000 cells per well in serum-containing InVitroGRO CP media (Bioreclamation, LLC) and allowed 5 hours to attach. Media was replaced with InVitroGRO HI media and cells were treated with siRNA-IV at 125 nM [siRNA] for 1 hour. Media was replaced with InVitroGRO HI media and cells were treated for approximately 16 hours with experimental Peptide conjugates at various concentrations to establish a dose-response curve. Peptide conjugates were washed out after 16 hours with InVitroGRO HI media and cells allowed to incubate for an additional 24 hours. Cells were then lysed and mRNA expression of the siRNA target was measured by RT-qPCR (Applied Biosystems Taqman reagents). mRNA silencing activity of each Peptide conjugate was expressed as an enhancement above the baseline activity of 125 nM siRNA-IV alone with respect to the untreated cells and all siRNA target Ct values were normalized to PPIB mRNA for each well (dddCt) and summarized.
The structure of TGN-S-S-peptide is shown below and the activity data is listed in Table 5 (siRNA-IV concentration was kept at […]).

TGN-S-S-SEQ ID NO: 1759 (D) ([dC]G[dL][dF]G[dE][dI][dE][dE][dL][dI][dE][dE]G[dL][dE][dS][dL][dI][dD][dW]G[dN]G; not fully specified (residue 1); also: disulfide to TGN peptide via Cys1; listed as Homo sapiens)
In vitro dddCt (vs. baseline SCE dose) (Targeted peptide dose 8 nM): −0.15
In vitro dddCt (vs. baseline SCE dose) (Targeted peptide dose 40 nM): −0.87
In vitro dddCt (vs. baseline SCE dose) (Targeted peptide dose 200 nM): −1.65
In vitro dddCt (vs. baseline SCE dose) (Targeted peptide dose 1000 nM): −1.66

TGN-S-S-SEQ ID NO: 1760 (D) ([dC]G[dL][dF]G[dE][dI][dE][dE][dL][dI][dE][dE]G[dL][dE][dQ][dL][dI][dD][dW]G[dN]G; not fully specified (residue 1); also: disulfide to TGN peptide via Cys1; listed as Homo sapiens)
In vitro dddCt (vs. baseline SCE dose) (Targeted peptide dose 8 nM): −0.09
In vitro dddCt (vs. baseline SCE dose) (Targeted peptide dose 40 nM): −1.01
In vitro dddCt (vs. baseline SCE dose) (Targeted peptide dose 200 nM): −1.6
In vitro dddCt (vs. baseline SCE dose) (Targeted peptide dose 1000 nM): −1.8
In vitro dddCt (vs. baseline SCE dose) (Targeted peptide dose 5000 nM): −1.46

TGN-S-S-SEQ ID NO: 1761 (D) ([dC]G[dL][dF]G[dE][dI][dE][dE][dL][dI][dE][dE]G[dL][dE][dN][dW][dI][dD][dW]G[dN]G; not fully specified (residue 1); also: disulfide to TGN peptide via Cys1; listed as Homo sapiens)
In vitro dddCt (vs. baseline SCE dose) (Targeted peptide dose 8 nM): 0.08
In vitro dddCt (vs. baseline SCE dose) (Targeted peptide dose 40 nM): −0.25
In vitro dddCt (vs. baseline SCE dose) (Targeted peptide dose 200 nM): −0.22
In vitro dddCt (vs. baseline SCE dose) (Targeted peptide dose 1000 nM): −0.07
In vitro dddCt (vs. baseline SCE dose) (Targeted peptide dose 5000 nM): −0.11

TGN-S-S-SEQ ID NO: 1762 (D) ([dC]G[dL][dF]G[dE][dI][dE][dE][dL][dI][dE][dE]G[dL][dE][dN][dF][dI][dD][dW]G[dN]G; not fully specified (residue 1); also: disulfide to TGN peptide via Cys1; listed as Homo sapiens)
In vitro dddCt (vs. baseline SCE dose) (Targeted peptide dose 8 nM): −0.07
In vitro dddCt (vs. baseline SCE dose) (Targeted peptide dose 40 nM): 0.03
In vitro dddCt (vs. baseline SCE dose) (Targeted peptide dose 200 nM): −0.17
In vitro dddCt (vs. baseline SCE dose) (Targeted peptide dose 1000 nM): −0.39
In vitro dddCt (vs. baseline SCE dose) (Targeted peptide dose 5000 nM): −0.08

TGN-S-S-SEQ ID NO: 1763 (D) ([dC]G[dL][dF]G[dE][dI][dE][dE][dL][dI][dE][dE]G[dL][dE][dN][dL][dW][dD][dW]G[dN]G; not fully specified (residue 1); also: disulfide to TGN peptide via Cys1; listed as Homo sapiens)
In vitro dddCt (vs. baseline SCE dose) (Targeted peptide dose 8 nM): −0.13
In vitro dddCt (vs. baseline SCE dose) (Targeted peptide dose 40 nM): −0.67
In vitro dddCt (vs. baseline SCE dose) (Targeted peptide dose 200 nM): −1.26
In vitro dddCt (vs. baseline SCE dose) (Targeted peptide dose 1000 nM): −1.44
In vitro dddCt (vs. baseline SCE dose) (Targeted peptide dose 5000 nM): −1.29

TGN-S-S-SEQ ID NO: 1764 (D) ([dC]G[dL][dF]G[dE][dI][dE][dE][dL][dI][dE][dE]G[dL][dE][dN][dL][dV][dD][dW]G[dN]G; not fully specified (residue 1); also: TGN conjugated via disulfide at Cys1; listed as Homo sapiens)
In vitro dddCt (vs. baseline SCE dose) (Targeted peptide dose 8 nM): −0.03
In vitro dddCt (vs. baseline SCE dose) (Targeted peptide dose 40 nM): −0.41
In vitro dddCt (vs. baseline SCE dose) (Targeted peptide dose 200 nM): −0.78
In vitro dddCt (vs. baseline SCE dose) (Targeted peptide dose 1000 nM): −0.62
In vitro dddCt (vs. baseline SCE dose) (Targeted peptide dose 5000 nM): −0.75

TGN-S-S-SEQ ID NO: 1765 (D) ([dC]G[dL][dF]G[dE][dI][dE][dE][dL][dI][dE][dE]G[dL][dE][dN][dL][dI][dE][dW]G[dN]G; not fully specified (residue 1); also: TGN conjugated via disulfide at Cys1; listed as Homo sapiens)
In vitro dddCt (vs. baseline SCE dose) (Targeted peptide dose 8 nM): −0.04
In vitro dddCt (vs. baseline SCE dose) (Targeted peptide dose 40 nM): −0.38
In vitro dddCt (vs. baseline SCE dose) (Targeted peptide dose 200 nM): −0.88
In vitro dddCt (vs. baseline SCE dose) (Targeted peptide dose 1000 nM): −1.23
In vitro dddCt (vs. baseline SCE dose) (Targeted peptide dose 5000 nM): −1.23

TGN-S-S-SEQ ID NO: 1772 (D) ([dC]G[dL][dF][dE][dA][dL][dL][dE][dL][dL][dE][dS][dL][dW][dE][dL][dL][dL][dE][dA]G[dY]G; not fully specified (residue 1); also: TGN conjugated via disulfide at Cys1; listed as Homo sapiens)
In vitro dddCt (vs. baseline SCE dose) (Targeted peptide dose 8 nM): 0.03
In vitro dddCt (vs. baseline SCE dose) (Targeted peptide dose 40 nM): −0.15
In vitro dddCt (vs. baseline SCE dose) (Targeted peptide dose 200 nM): −0.15
In vitro dddCt (vs. baseline SCE dose) (Targeted peptide dose 1000 nM): −0.17
In vitro dddCt (vs. baseline SCE dose) (Targeted peptide dose 5000 nM): −0.08

TGN-S-S-SEQ ID NO: 1775(D) ([dC]G[dL][dF][dE][dA][dL][dL][dE][dL][dL][dE][dS][dL][dW][dE][dL][dL][dL][dE][dA]; not fully specified (residue 1); also: TGN conjugated via disulfide at Cys1; listed as Homo sapiens)
In vitro dddCt (vs. baseline SCE dose) (Targeted peptide dose 8 nM): −0.1
In vitro dddCt (vs. baseline SCE dose) (Targeted peptide dose 40 nM): −0.14
In vitro dddCt (vs. baseline SCE dose) (Targeted peptide dose 200 nM): −0.14
In vitro dddCt (vs. baseline SCE dose) (Targeted peptide dose 1000 nM): −0.11
In vitro dddCt (vs. baseline SCE dose) (Targeted peptide dose 5000 nM): −0.37

TGN-S-S-SEQ ID NO: 1777 (D) ([dC]G[dN][dF]G[dE][dI][dE][dE][dL][dI][dE][dE]G[dL][dE][dN][dL][dI][dD][dW]G[dN]G; not fully specified (residue 1); also: TGN conjugated via disulfide at Cys1; listed as Homo sapiens)
In vitro dddCt (vs. baseline SCE dose) (Targeted peptide dose 8 nM): −0.18
In vitro dddCt (vs. baseline SCE dose) (Targeted peptide dose 40 nM): 0.28
In vitro dddCt (vs. baseline SCE dose) (Targeted peptide dose 200 nM): −0.13
In vitro dddCt (vs. baseline SCE dose) (Targeted peptide dose 1000 nM): −0.13
In vitro dddCt (vs. baseline SCE dose) (Targeted peptide dose 5000 nM): 0.09

TGN-S-S-SEQ ID NO: 1778 (D) ([dC]G[dL][dF][dA][dE][dI][dE][dE][dL][dI][dE][dE]G[dL][dE][dN][dL][dI][dD][dW]G[dN]G; not fully specified (residue 1); also: TGN conjugated via disulfide at Cys1; listed as Homo sapiens)
In vitro dddCt (vs. baseline SCE dose) (Targeted peptide dose 8 nM): −0.38
In vitro dddCt (vs. baseline SCE dose) (Targeted peptide dose 40 nM): −0.57
In vitro dddCt (vs. baseline SCE dose) (Targeted peptide dose 200 nM): −0.91
In vitro dddCt (vs. baseline SCE dose) (Targeted peptide dose 1000 nM): −1.54

TGN-S-S-SEQ ID NO: 1779(D) ([dC]G[dL][dF][dE][dE][dI][dE][dE][dL][dI][dE][dE]G[dL][dE][dN][dL][dI][dD][dW]G[dN]G; not fully specified (residue 1); also: TGN conjugated via disulfide at Cys1; listed as Homo sapiens)
In vitro dddCt (vs. baseline SCE dose) (Targeted peptide dose 8 nM): −0.18
In vitro dddCt (vs. baseline SCE dose) (Targeted peptide dose 40 nM): −0.24
In vitro dddCt (vs. baseline SCE dose) (Targeted peptide dose 200 nM): −1.29
In vitro dddCt (vs. baseline SCE dose) (Targeted peptide dose 1000 nM): −1.52
In vitro dddCt (vs. baseline SCE dose) (Targeted peptide dose 5000 nM): −1.51

TGN-S-S-SEQ ID NO: 1780 (D) ([dC]G[dL][dF]G[dE][dI][dA][dE][dL][dI][dE][dE]G[dL][dE][dN][dL][dI][dD][dW]G[dN]G; not fully specified (residue 1); also: TGN conjugated via disulfide at Cys1; listed as Homo sapiens)
In vitro dddCt (vs. baseline SCE dose) (Targeted peptide dose 8 nM): −0.11
In vitro dddCt (vs. baseline SCE dose) (Targeted peptide dose 40 nM): −1.05
In vitro dddCt (vs. baseline SCE dose) (Targeted peptide dose 200 nM): −2.83
In vitro dddCt (vs. baseline SCE dose) (Targeted peptide dose 1000 nM): 0.18
In vitro dddCt (vs. baseline SCE dose) (Targeted peptide dose 5000 nM): −3.2

TGN-S-S-SEQ ID NO: 1781 (D) ([dC][dE][dL][dF]G[dE][dI][dE][dE][dL][dI][dE][dE]G[dL][dE][dN][dL][dI][dD][dW]G[dN]G; not fully specified (residue 1); also: TGN conjugated via disulfide at Cys1; listed as Homo sapiens)
In vitro dddCt (vs. baseline SCE dose) (Targeted peptide dose 8 nM): −0.01
In vitro dddCt (vs. baseline SCE dose) (Targeted peptide dose 40 nM): −0.02
In vitro dddCt (vs. baseline SCE dose) (Targeted peptide dose 200 nM): 0.03
In vitro dddCt (vs. baseline SCE dose) (Targeted peptide dose 1000 nM): −0.01
In vitro dddCt (vs. baseline SCE dose) (Targeted peptide dose 5000 nM): 0.01

TGN-S-S-SEQ ID NO: 1782 (D) ([dC][dA][dL][dF]G[dE][dI][dE][dE][dL][dI][dE][dE]G[dL][dE][dN][dL][dI][dD][dW]G[dN]G; not fully specified (residue 1); also: TGN conjugated via disulfide at Cys1; listed as Homo sapiens)
In vitro dddCt (vs. baseline SCE dose) (Targeted peptide dose 8 nM): −0.14
In vitro dddCt (vs. baseline SCE dose) (Targeted peptide dose 40 nM): 0.43
In vitro dddCt (vs. baseline SCE dose) (Targeted peptide dose 200 nM): −0.17
In vitro dddCt (vs. baseline SCE dose) (Targeted peptide dose 1000 nM): −0.21
